Laboratory results from the PolyMetriX glass transition set.

SMILES | glass transition temperature [°C]
*C(=O)Nc1cccc2c(NC(=O)c3ccc4c(c3)C(=O)N(c3ccc(Oc5cccc6c(N7C(=O)c8ccc(*)cc8C7=O)cccc56)cc3)C4=O)cccc12 (repeat unit) | 299.00
*C(=O)c1ccc2c(c1)C(=O)N(c1ccc(C(=O)N(C)c3ccc(N4C(=O)c5ccc(*)cc5C4=O)cc3)cc1)C2=O (repeat unit) | 313.00
*C(=O)c1ccc2c(c1)C(=O)N(c1ccc(C(=O)c3ccc(Cc4ccc(C(=O)c5ccc(N6C(=O)c7ccc(*)cc7C6=O)cc5)cc4)cc3)cc1)C2=O (repeat unit) | 285.50
*C(=O)c1ccc2c(c1)C(=O)N(c1cccc(Cc3ccc(C(=O)c4ccc(N5C(=O)c6ccc(*)cc6C5=O)cc4)cc3)c1)C2=O (repeat unit) | 254.00
*CC(O)COc1ccc(C(=O)c2ccc(O*)cc2)cc1 (repeat unit) | 130.00
*CCCCCC(=O)Oc1ccc(OC(=O)CCCCCn2c(=O)c3cc4c(=O)n(*)c(=O)c4cc3c2=O)c(C)c1 (repeat unit) | 78.00
*CCCCCOc1ccc(C(=O)OC(=O)c2ccc(O*)cc2)cc1 (repeat unit) | 53.00
*CCOCCOc1ccc(C(=O)OC(=O)c2ccc(O*)cc2)cc1 (repeat unit) | 41.00
*CCOc1ccc(C(=O)OC(=O)c2ccc(O*)cc2)cc1 (repeat unit) | 45.00
*COCOc1ccc(C(=O)OC(=O)c2ccc(O*)cc2)cc1 (repeat unit) | 57.00
*COc1ccc(C(=O)OC(=O)c2ccc(O*)cc2)cc1 (repeat unit) | 84.00
*Nc1c(C)c(C)c(C(=O)c2ccc(NC(=O)c3ccc(C(*)=O)cc3)cc2)c(C)c1C (repeat unit) | 366.00
*Nc1cccc2c(NC(=O)c3cccc(C(*)=O)c3)cccc12 (repeat unit) | 325.00
*Nc1cnc(*)s1 (repeat unit) | 139.00
*OC(=O)c1ccc(Cc2ccc(C(*)=O)cc2)cc1 (repeat unit) | 122.00
*OC(=O)c1ccc(SCCCCSc2ccc(C(*)=O)cc2)cc1 (repeat unit) | 62.00
*OC(CCl)C(*)CCl (repeat unit) | 95.00
*OC(F)(C(*)(F)F)C(F)(F)F (repeat unit) | -73.00
*OC1C(C)(C)C(OC(=O)C2CCC(C(*)=O)CC2)C1(C)C (repeat unit) | 169.00
*OC1C(CO)OC(*)C(NC(C)=O)C1O (repeat unit) | 154.60
*ON(C(F)(F)F)C(F)(C(*)(F)F)C(F)(F)F (repeat unit) | -9.00
*ON(C(F)(F)F)C(F)(F)C(*)(F)F (repeat unit) | -46.00
*OP(=O)(Oc1ccccc1)OC(CCl)COc1ccc(S(=O)(=O)c2ccc(OCC(*)CCl)cc2)cc1 (repeat unit) | 48.00
*O[Si](C)(C)O[Si](C)(C)O[Si](C)(C)O[Si](C)(C)O[Si](C)(C)OC1=C(*)c2cccc3cccc1c23 (repeat unit) | -54.00
*[O][Sn]([CH2]CCC)([CH2]CCC)[O]C(=O)/C=C/C(*)=O (repeat unit) | 186.00

SMILES | glass transition temperature [°C]
*[O][Sn]([CH2]CCC)([CH2]CCC)[O]C(=O)c1ccc(C(*)=O)cc1 (repeat unit) | 315.00
*Oc1c(C)cc(C(C)(C)c2cc(C)c(OC(*)=O)c(Cl)c2)cc1Cl (repeat unit) | 154.00
*Oc1cc(C(C)(C)c2ccccc2)c(OC(=O)c2ccc(C(*)=O)cc2)cc1C(C)(C)c1ccccc1 (repeat unit) | 170.00
*Oc1cc(CCC)cc(OC(=O)c2cccc(C(*)=O)c2)c1 (repeat unit) | 129.00
*Oc1cc(CCCCCCCCCCC)cc(OC(=O)c2cccc(C(*)=O)c2)c1 (repeat unit) | 34.50
*Oc1cc(CCCCCCCCCCCCC)cc(OC(=O)c2cccc(C(*)=O)c2)c1 (repeat unit) | 25.50
*Oc1cc(OC(=O)c2ccc(C(*)=O)cc2)cc(C(=O)OCCN(CC)c2ccc(/N=N/c3ccc([N+](=O)[O-])cc3)cc2)c1 (repeat unit) | 130.00
*Oc1cc(OC(=O)c2ccc(OC)cc2)c(OC(=O)CCCC(*)=O)cc1OC(=O)c1ccc(OC)cc1 (repeat unit) | 88.00
*Oc1cc(OC(=O)c2ccc(OC)cc2)c(OC(=O)CCCCCCCCCCCCCCC(*)=O)cc1OC(=O)c1ccc(OC)cc1 (repeat unit) | 33.00
*Oc1cc(OC(=O)c2ccc(OCC)cc2)c(OC(=O)CCCCCCCCCCCCCCC(*)=O)cc1OC(=O)c1ccc(OCC)cc1 (repeat unit) | 31.00
*Oc1cc(OC(=O)c2ccc(OCCC)cc2)c(OC(=O)CCCC(*)=O)cc1OC(=O)c1ccc(OCCC)cc1 (repeat unit) | 72.00
*Oc1cc(OC(=O)c2ccc(OCCC)cc2)c(OC(=O)CCCCCCCCCCCCCCC(*)=O)cc1OC(=O)c1ccc(OCCC)cc1 (repeat unit) | 18.00
*Oc1cc(OC(=O)c2ccc(OCCCC)cc2)c(OC(=O)CCCC(*)=O)cc1OC(=O)c1ccc(OCCCC)cc1 (repeat unit) | 59.00
*Oc1cc(OC(=O)c2ccc(OCCCC)cc2)c(OC(=O)CCCCCCCC(*)=O)cc1OC(=O)c1ccc(OCCCC)cc1 (repeat unit) | 38.00
*Oc1cc(OC(=O)c2ccc(OCCCCCCCCCCCC)cc2)c(OC(=O)CCCC(*)=O)cc1OC(=O)c1ccc(OCCCCCCCCCCCC)cc1 (repeat unit) | 23.00
*Oc1cc(OCCOC)c(OC(=O)c2ccc(C(*)=O)cc2-c2ccccc2)cc1OCCOC (repeat unit) | 92.00
*Oc1ccc(-c2ccc(OC(=O)c3ccc(-c4ccc(C(*)=O)cc4C(F)(F)F)c(C(F)(F)F)c3)cc2C(=O)OCCCCCCCCCCCOc2ccc(-c3ccc(C#N)cc3)cc2)c(C(=O)OCCCCCCCCCCCOc2ccc(-c3ccc(C#N)cc3)cc2)c1 (repeat unit) | 50.00
*Oc1ccc(-c2ccc(OC(=O)c3ccc(Oc4ccc(C5(c6ccc(Oc7ccc(C(*)=O)cc7)cc6)CCC(C(C)(C)C)CC5)cc4)cc3)cc2C)c(C)c1 (repeat unit) | 163.00
*Oc1ccc(OC(=O)c2cc(OCCCc3ccccc3)c(C(*)=O)cc2OCCCc2ccccc2)cc1C (repeat unit) | 91.00
*Oc1ccc(OC(=O)c2ccc(-c3ccc(C(*)=O)cc3)cc2-c2ccccc2)cc1C (repeat unit) | 133.00
*Oc1ccc(OC(=O)c2ccc(C(*)=O)cc2Sc2ccccc2)cc1C (repeat unit) | 130.00
*Oc1ccc(OC(=O)c2ccc(OCCCCCCOc3ccc(C(*)=O)cc3)cc2)cc1/N=N/c1ccc(C#N)cc1 (repeat unit) | 98.00
*Oc1ccc(OC(=O)c2ccc(Sc3cccc(OC(=O)c4ccc(C(=O)Oc5cccc(Sc6ccc(C(*)=O)cc6)c5)cc4)c3)cc2)cc1C (repeat unit) | 135.00
*c1ccc(C(=O)c2ccc(N3C(=O)c4ccc(Oc5ccc(Oc6ccc7c(c6)C(=O)N(*)C7=O)cc5)cc4C3=O)cc2)cc1 (repeat unit) | 268.00
